Source: article PMC7279487, “Dual Target Ligands with 4-tert-Butylphenoxy Scaffold as Histamine H3 Receptor Antagonists and Monoamine Oxidase B Inhibitors” (International Journal of Molecular Sciences, 2020)

Columns and labels:
hMAO B [1] = target: T1, hMAO B (Homo sapiens, UniProt P27338); test: hMAO B reversibility studies; type: biochemical; settings: inhibitor at IC80; for effect of 30 min preincubation with enzyme on hMAO B inhibition: with vs without preincubation
T1 construct: purchased Sigma Aldrich M7441
T1 sequence (P27338 1-520): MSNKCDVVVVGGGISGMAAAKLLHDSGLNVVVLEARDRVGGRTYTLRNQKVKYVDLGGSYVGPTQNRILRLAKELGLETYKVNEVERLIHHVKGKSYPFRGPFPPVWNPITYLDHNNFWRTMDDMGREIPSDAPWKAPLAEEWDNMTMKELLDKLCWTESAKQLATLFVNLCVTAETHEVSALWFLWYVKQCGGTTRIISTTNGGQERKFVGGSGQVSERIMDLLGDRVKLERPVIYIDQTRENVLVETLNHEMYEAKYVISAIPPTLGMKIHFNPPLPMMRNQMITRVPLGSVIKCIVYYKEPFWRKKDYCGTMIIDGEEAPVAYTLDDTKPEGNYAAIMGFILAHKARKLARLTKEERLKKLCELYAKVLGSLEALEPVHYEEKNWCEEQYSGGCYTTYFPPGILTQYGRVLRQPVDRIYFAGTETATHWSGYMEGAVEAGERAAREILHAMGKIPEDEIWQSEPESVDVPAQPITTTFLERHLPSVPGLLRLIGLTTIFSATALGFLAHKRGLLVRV
Protocol: Reversibility of MAO B inhibitors was tested as described previously with slight modification. Two experiments were performed simultaneously. In the first experiment, inhibitors (in concentrations corresponding to their IC80 values) were incubated with the enzyme and p-tyramine (10 μM) for 22 min (measuring fluorescence every two minutes).

human MAO A = target: T2, human MAO A (Homo sapiens, UniProt P21397); test: hMAO A inhibition, fluorometric Amplex Red MAO assay; type: biochemical; settings: for IC50: mean ± SEM, p-tyramine 200 μM; for inhibition at 10 µM: percent of inhibition at 10 μM, mean of two independent experiments, read-out: MAO A (%Inh.)
T2 construct: purchased Sigma Aldrich M7316
T2 sequence (P21397 1-527): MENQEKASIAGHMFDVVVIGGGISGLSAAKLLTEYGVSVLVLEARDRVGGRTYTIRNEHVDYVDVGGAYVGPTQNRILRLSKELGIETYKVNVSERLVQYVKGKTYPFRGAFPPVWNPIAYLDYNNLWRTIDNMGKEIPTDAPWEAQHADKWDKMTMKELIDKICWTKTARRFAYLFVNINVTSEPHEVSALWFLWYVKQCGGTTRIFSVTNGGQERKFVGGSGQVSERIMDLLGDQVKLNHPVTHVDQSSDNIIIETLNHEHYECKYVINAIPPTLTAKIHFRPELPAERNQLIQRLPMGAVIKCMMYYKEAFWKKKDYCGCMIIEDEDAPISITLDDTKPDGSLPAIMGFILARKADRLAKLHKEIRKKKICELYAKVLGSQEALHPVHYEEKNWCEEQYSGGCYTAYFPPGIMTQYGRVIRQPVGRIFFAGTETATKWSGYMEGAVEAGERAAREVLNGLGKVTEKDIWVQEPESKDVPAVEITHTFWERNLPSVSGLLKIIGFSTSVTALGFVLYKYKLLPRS
Protocol: Inhibitory potency of compounds on MAO isoenzymes were carried out by a fluorometric method with a commercial Amplex™ Red Monoamine Oxidase Assay Kit (ThermoFisher Scientific A12214, Waltham, MA, USA) as described previously. For all tests, recombinant human MAO B and MAO A (from Sigma AldrichM7441 and M7316, Darmstadt, Germany) were used. Inhibitors’ activity was measured in the presence of p-tyramine (200 μM).
[…] […] All calculations were made in Microsoft Excel and GraphPadPrism software. All experiments were performed in duplicate, and data are expressed as mean ± SEM of 2–5 independent experiments.

[2] = target: T3, human histamine H3 receptor (hH3R) (Homo sapiens, UniProt Q9Y5N1); test: radioligand displacement binding assay, [3H]Nα-methylhistamine, HEK293 cells stably expressing hH3R; settings: HEK293 cells stably expressing human H3R, mean (95% CI)
T3 construct: expressed in transfected cells
T3 sequence (Q9Y5N1 whole entry): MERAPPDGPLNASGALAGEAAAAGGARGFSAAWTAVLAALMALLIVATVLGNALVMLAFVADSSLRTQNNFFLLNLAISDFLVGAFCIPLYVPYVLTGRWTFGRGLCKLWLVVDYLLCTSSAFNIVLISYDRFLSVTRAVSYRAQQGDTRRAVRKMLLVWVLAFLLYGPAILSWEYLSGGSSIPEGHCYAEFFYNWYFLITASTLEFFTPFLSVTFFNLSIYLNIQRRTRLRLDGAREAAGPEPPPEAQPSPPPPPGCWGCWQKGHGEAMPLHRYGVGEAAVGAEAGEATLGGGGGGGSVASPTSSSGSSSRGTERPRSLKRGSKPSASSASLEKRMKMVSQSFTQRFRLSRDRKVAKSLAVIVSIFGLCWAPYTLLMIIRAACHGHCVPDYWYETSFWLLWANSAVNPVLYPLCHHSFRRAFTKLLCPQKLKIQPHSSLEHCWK
Protocol: [^3H]N^α-methylhistamine was used as a radioligand.
The radioligand displacement binding assay was carried out in HEK-293 cells stably expressing the recombinant hH3R as described by Kottke et al. with slight modifications. […] Obtained data from at least three experiments (in at least duplicates) were analyzed with GraphPad Prism 6.1 (San Diego, CA, USA) using nonlinear regression (one-site competition on logarithmic scale), and Ki values were transformed from IC50 according to Cheng-Prusoff. Statistical analysis was performed on −log Ki values.

hMAO B [3] = target: T1, hMAO B; test: hMAO B inhibition, fluorometric Amplex Red MAO assay; type: biochemical; settings: mean ± SEM of 2-5 independent experiments; p-tyramine 200 μM
[4] = tested on: haloperidol-induced catalepsy; test: haloperidol-induced catalepsy, crossed-leg position test; type: in vivo, Wistar rats; settings: mean ± SEM (n = 6)
Protocol: (§1) Haloperidol (dopamine D2 antagonist)-induced catalepsy in rodents is a popular model for screening of antiparkinsonian activity of compounds [21]. Caused symptoms in animals are similar to the inability of PD patients to initiate movements. […] The reversal of catalepsy was tested for 6 min (3 times in 3 min intervals) after 1 h of haloperidol administration. As the reference compound was used MSX-3, the adenosine A2A receptor antagonist with confirmed ability to reverse catalepsy mediated by D1 and D2 receptor antagonists.
(§2) The experiments were carried out on male rats Wistar (180–220 g). Animals were housed in plastic cages in room at a constant temperature of 20 ± 2 °C with natural light–dark cycles. The animals had free access to standard pellet diet and water and were used after a minimum of 3 days of acclimatization to the housing conditions. Control and experimental groups consisted of 6 animals each. All experimental procedures were performed according to the European Union Directive of 22 September 2010 (2010/63/EU) and Polish legislation concerning animal care and use and was approved by the Local Ethics Committee for Experiments on Animals in Kraków, Poland (Resolution No. 70/2014, approval date: 20 May 2014). The examined compound was administered as the suspension in 0.5% methylcellulose in constant volume of 10 mL/kg.
(§3) Antiparkinsonian activity in catalepsy tests was performed as described in [28]. Haloperidol was administered s.c. at a dose of 0.63 mg/kg, which in 100% of control animals caused catalepsy. Tested compounds were administered i.p. at the doses 50 and 25 mg/kg body weight, 5 min after haloperidol injection. After 60 min from the injection of haloperidol, to assess the occurrence of catalepsy, the animals were placed in a forced position and the time they remained in this position was measured. Two tests were performed to determine the antiparkinsonian activity: crossed leg position test and bar test. In the first test, the animals were put on the hind paws behind the front (forced position); in the second, the animals were supported on a wooden block (the front paws were placed on a block suspended 10 cm above the ground). Then, the time that the animals remain is measured in a forced position (time was measured to a maximum of 60 s). Observation was carried out 3 times in 3-min intervals. The shortening of the time of catalepsy to the control group was adopted for the antiparkinsonian activity.

[5] = tested on: haloperidol-induced catalepsy; test: haloperidol-induced catalepsy, bar test; type: in vivo, Wistar rats; settings: mean ± SEM (n = 6)
Protocol: as §1
Haloperidol-induced catalepsy was not reduced by DL-76 administrated at a dose of 25 mg/kg body weight (Table 3). After administration of DL-76 at a dose of 50 mg/kg body weight, low antiparkinsonian activity in the bar test was observed. […] This effect was weaker than the anti-Parkisonian activity of MSX-3.
as §2, §3

Row | Structure (SMILES) | IC50 (human MAO A) [nM] | melting point [°C] | Ki [2] [nM] | IC50 (hMAO B [3]) [nM] | further results
1 | C[C@H](NCc1ccc(OCc2cccc(F)c2)cc1)C(N)=O [safinamide, reference compound] |  |  |  |  | effect of 30 min preincubation with enzyme on hMAO B inhibition (hMAO B [1]): did not show differences between experiments with and without the preincubation
2 | C#CCn1c(=O)c2c(nc(/C=C/c3cccc(OC)c3)n2C)n(CCCOP(=O)(O)O)c1=O.[Na].[Na] [MSX-3, (E)-phosphoric acid mono-[3-[8-[2-(3-methoxyphenyl)vinyl]-7-methyl-2,6-dioxo-1-prop-2-ynyl-1,2,6,7-tetrahydro-purin-3-yl]propyl] ester disodium salt, reference compound] |  |  |  |  | Times of Observation of Catalepsy (s), 0 min ([4]; 25 mg/kg): 0 ± 0 s; Times of Observation of Catalepsy (s), 3 min ([4]; 25 mg/kg): 0 ± 0 s; Times of Observation of Catalepsy (s), 6 min ([4]; 25 mg/kg): 0 ± 0 s; Times of Observation of Catalepsy (s), 0 min ([4]; 50 mg/kg): 0 ± 0 s; Times of Observation of Catalepsy (s), 3 min ([4]; 50 mg/kg): 0 ± 0 s; Times of Observation of Catalepsy (s), 6 min ([4]; 50 mg/kg): 0 ± 0 s; Times of Observation of Catalepsy (s), 0 min ([5]; 25 mg/kg i.p.): 0 ± 0 s; Times of Observation of Catalepsy (s), 3 min ([5]; 25 mg/kg i.p.): 0 ± 0 s; Times of Observation of Catalepsy (s), 6 min ([5]; 25 mg/kg i.p.): 0 ± 0 s; Times of Observation of Catalepsy (s), 0 min ([5]; 50 mg/kg i.p.): 0 ± 0 s; Times of Observation of Catalepsy (s), 3 min ([5]; 50 mg/kg i.p.): 0 ± 0 s; Times of Observation of Catalepsy (s), 6 min ([5]; 50 mg/kg i.p.): 0 ± 0 s
3 | CC1(C)CCCN(CCCCCCOc2ccc(C(C)(C)C)cc2)C1.O=C(O)C(=O)O [Compound 19, 1-(6-(4-tert-Butylphenoxy)hexyl)-3,3-dimethylpiperidine hydrogen oxalate] | > 10000 | 122 to 125 | 2580 |  | inhibition at 10 µM (human MAO A): 24%
4 | CC1CCCCN1CCCCOc1ccc(C(C)(C)C)cc1.O=C(O)C(=O)O (centres unmarked) [Compound 10, 1-(4-(4-tert-Butylphenoxy)butyl)-2-methylpiperidine hydrogen oxalate] | > 10000 | 107 to 110 | 153 | 475 ± 38 | 
5 | CC1(C)CCCN(CCCCCOc2ccc(C(C)(C)C)cc2)C1.O=C(O)C(=O)O [Compound 18, 1-(5-(4-tert-Butylphenoxy)pentyl)-3,3-dimethylpiperidine hydrogen oxalate] | > 10000 | 150 to 153 | 3540 |  | inhibition at 10 µM (human MAO A): 19%

More lines, main results first:

Row | IC50 (human MAO A) [nM] | melting point [°C] | Ki [2] [nM] | IC50 (hMAO B [3]) [nM] | Structure (SMILES) | further results
6 | > 10000 | 141 to 143 | 98 | 117 ± 12 | CC1CCCN(CCCOc2ccc(C(C)(C)C)cc2)C1.O=C(O)C(=O)O (centres unmarked) [Compound 12, 1-(3-(4-tert-Butylphenoxy)propyl)-3-methylpiperidine hydrogen oxalate] | 
7 | > 10000 | 149 to 151 | 299 |  | CC(C)(C)c1ccc(OCCCCN2CCCCCC2)cc1.O=C(O)C(=O)O [Compound 29, 1-(4-(4-tert-Butylphenoxy)butyl)-azepane hydrogen oxalate] | inhibition at 10 µM (human MAO A): 23%
8 | > 10000 | 150 to 152 | 309 | 290 ± 7 | CC(C)(C)c1ccc(OCCCCN2CCCCC2)cc1.O=C(O)C(=O)O [Compound 6, 1-(4-(4-tert-Butylphenoxy)butyl)piperidine hydrogen oxalate] | 
9 | > 10000 | 183 to 186 | 1620 | 476 ± 38 | CC1(C)CCCN(CCCOc2ccc(C(C)(C)C)cc2)C1.O=C(O)C(=O)O [Compound 16, 1-(3-(4-tert-Butylphenoxy)propyl)-3,3-dimethylpiperidine hydrogen oxalate] | 
10 |  | 147 to 149 | 371 | 2.7 ± 0.4 | CC(C)(C)c1ccc(OCCCN2CCCC2)cc1.O=C(O)C(=O)O [Compound 5, 1-(3-(4-tert-Butylphenoxy)propyl)pyrrolidine hydrogen oxalate] | effect of 30 min preincubation with enzyme on hMAO B inhibition (hMAO B [1]): did not show differences between experiments with and without the preincubation; type of hMAO B inhibition (reversible or irreversible) (hMAO B [1]; without preincubation, compared with safinamide and rasagiline): reversible
11 | > 10000 | 138 to 140 | 111 | 45 ± 4 | CC(C)(C)c1ccc(OCCCN2CCCCCC2)cc1.O=C(O)C(=O)O [Compound 28, 1-(3-(4-tert-Butylphenoxy)propyl)-azepane hydrogen oxalate] | 
